Reference: publication PMC10387993, “New pyrimidine-N-β-D-glucosides: synthesis, biological evaluation, and molecular docking investigations” (Turkish Journal of Chemistry, 2023)
Values after ≈ are worked out from the molar mass of the structure shown. Where two headings read alike, the source gives them in different places. One block for each compound: values may come before it.

What was measured:
Assay type in all cases: cell-based
A549 = assay: cells; settings: Homo sapiens; for LC50 (concentration causing 50% net cell loss): A549, read-out: LC50; for GI50 / IC50 / IC (total growth inhibition): A549, MTT; for IC50: read-out: IC50; for IC (total growth inhibition): read-out: TGI
Outline: (§1)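 Cells were seeded at about 1 × 10^4 per well, brought to 200 μL with medium, and assessed by MTT: 4 h with MTT reagent, formazan dissolved in DMSO with Sorenson's buffer, absorbance read at 560 nm (690 nm reference). IC50 derived from percent inhibition relative to DMSO.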

C6 (Rat brain glioma) = assay: cells; settings: Rattus norvegicus; for LC50 (concentration giving 50% net cell loss relative to time zero): read-out: LC50; for GI50 / IC50 / IC (total growth inhibition): C6, MTT; for IC50: read-out: IC50; for IC (total growth inhibition): read-out: TGI
Outline: as §1

HT29 = assay: cells; settings: Homo sapiens; for LC50 (concentration giving 50% net cell loss relative to time zero): HT-29, read-out: LC50; for GI50 / IC50 / IC (total growth inhibition): HT-29, HT29, MTT; for IC50: read-out: IC50; for IC (total growth inhibition): read-out: TGI
Outline: as §1

HeLa = assay: cells; settings: Homo sapiens; for GI50 / IC50 / IC (total growth inhibition): MTT; for IC50: read-out: IC50; for IC (total growth inhibition): read-out: TGI; for LC50 (concentration causing 50% net cell loss): read-out: LC50
Outline: as §1

Hep3B = assay: cells; settings: Homo sapiens; for GI50 / IC50 / IC (total growth inhibition): MTT; for IC50: read-out: IC50; for IC (total growth inhibition): read-out: TGI; for LC50 (concentration causing 50% net cell loss relative to time zero): read-out: LC50
Outline: as §1

MCF7 = assay: cells; settings: Homo sapiens; for LC50 (concentration causing 50% net cell loss relative to time zero): MCF7, read-out: LC50; for GI50 / IC50 / IC (total growth inhibition): MCF7, MTT; for IC50: read-out: IC50; for IC (total growth inhibition): read-out: TGI
Outline: as §1

in vitro = settings: human, LC50
Outline: as §1

normal FL cells = assay: cells; settings: FL normal cells, MTT; for IC50: read-out: IC50; for IC (total growth inhibition): read-out: TGI
Outline: as §1

[1] = LDH cytotoxic activity assay, C6; settings: rat, C6 glioma cells; for cytotoxicity at 24 h, 25 μg/mL: C6, 25 μg/mL; for cytotoxicity at 24 h, 50 μg/mL: C6, 50 μg/mL; for cytotoxicity at 24 h, 75 μg/mL: C6, 75 μg/mL; for cytotoxicity at 24 h, 100 μg/mL: C6, 100 μg/mL
Outline: (§2)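 About 5 × 10^3 cells per well, in triplicate, exposed to 25, 50, 75 and 100 μg/mL of test compound for 24 h at 37 °C, 5% CO2. Cells grown in DMEM or RPMI 1640 with 10% FBS. LDH activity read as absorbance at 492–630 nm.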

[2] = LDH cytotoxic activity assay, HeLa; settings: human, HeLa cells
Outline: as §2

[3] = LDH cytotoxic activity assay, HT29; settings: human, HT29 cells; for cytotoxicity at 24 h, 25 μg/mL: HT29, 25 μg/mL; for cytotoxicity at 24 h, 50 μg/mL: HT29, 50 μg/mL; for cytotoxicity at 24 h, 75 μg/mL: HT29, 75 μg/mL; for cytotoxicity at 24 h, 100 μg/mL: HT29, 100 μg/mL
Outline: as §2

E. coli ATCC 25922 = assay: Microdilution MIC assay; settings: Escherichia coli, ATCC25922; E. coli ATCC 25922, 24 h at 35 °C
Description: (§3) MIC values of the compounds against bacterial strains were determined on the basis of a microwell dilution method. […] […]. Growth of microorganisms was determined visually after incubation for 24 h at 35 °C. The lowest concentration at which there was no visible growth (turbidity) was taken as the MIC.

E. coli ESBL ATCC 35218 = assay: Microdilution MIC assay; settings: Escherichia coli, ATCC35218; E. coli ESBL ATCC 35218, 24 h at 35 °C
Description: as §3

E. faecalis ATCC 29212 = assay: Microdilution MIC assay; settings: Enterococcus faecalis, ATCC29212, 24 h, E. faecalis ATCC 29212, 24 h at 35 °C; read-out: MIC
Description: as §3

S. aureus ATCC 25923 = assay: Microdilution MIC assay; settings: Staphylococcus aureus, ATCC25923, 24 h, S. aureus ATCC 25923, 24 h at 35 °C; read-out: MIC
Description: as §3

S. gordonii NCTC 7870 = assay: Microdilution MIC assay; settings: Streptococcus gordonii, NCTC7870; S. gordonii NCTC 7870, 24 h at 35 °C
Description: as §3

S. mutans ATCC 35668 = assay: Microdilution MIC assay; settings: S. mutans ATCC 35668, 24 h at 35 °C
Description: as §3

[4] = Streptococcus mutans, ATCC35668, 24 h, read-out: MIC

GI50 (A549): 67.8 µg/mL (≈ 160 µM)
IC50 (A549): > 500 µg/mL
GI50 (C6 (Rat brain glioma)): 6.34 µg/mL (≈ 14.9 µM)
IC50 (C6 (Rat brain glioma)): 41.2 µg/mL (≈ 97.1 µM)
GI50 (HT29): 3.41 µg/mL (≈ 8.03 µM)
IC50 (HT29): 198 µg/mL (≈ 466 µM)
GI50 (HeLa): 10.5 µg/mL (≈ 24.8 µM)
IC50 (HeLa): 54.4 µg/mL (≈ 128 µM)
GI50 (Hep3B): 5.38 µg/mL (≈ 12.7 µM)
IC50 (Hep3B): > 500 µg/mL
GI50 (MCF7): 1.81 µg/mL (≈ 4.26 µM)
IC50 (MCF7): > 500 µg/mL
MIC (E. coli ATCC 25922): > 1000 µg/mL
MIC (E. coli ESBL ATCC 35218): > 1000 µg/mL
MIC (E. faecalis ATCC 29212): 1000 µg/mL (≈ 2360 µM)
MIC (S. aureus ATCC 25923): 500 µg/mL (≈ 1180 µM)
MIC (S. gordonii NCTC 7870): 250 µg/mL (≈ 589 µM)
MIC (S. mutans ATCC 35668): 62.5 µg/mL (≈ 147 µM)
MIC (S. mutans ATCC 35668; [4]): 62.5 to 125 µg/mL (≈ 147 to 294 µM)
SMILES: Cc1ccccc1-c1cc(-c2ccccn2)nc(N[C@@H]2O[C@H](CO)[C@@H](O)[C@H](O)[C@H]2O)n1 [Compound 1, N-[4-(2-methylphenyl)-6-pyridin-2-ylpyrimidin-2-yl]-β-D-glucopyranosylamine]
LC50 (concentration causing 50% net cell loss) (A549): > 500 µg/mL
IC (total growth inhibition) (A549): > 500 µg/mL
LC50 (concentration giving 50% net cell loss relative to time zero) (C6 (Rat brain glioma)): 245 µg/mL (≈ 578 µM)
IC (total growth inhibition) (C6 (Rat brain glioma)): 24.3 µg/mL
LC50 (concentration giving 50% net cell loss relative to time zero) (HT29): > 500 µg/mL
IC (total growth inhibition) (HT29): > 500 µg/mL
IC (total growth inhibition) (HeLa): 35.1 µg/mL
LC50 (concentration causing 50% net cell loss) (HeLa): 218 µg/mL (≈ 514 µM)
IC (total growth inhibition) (Hep3B): > 500 µg/mL
LC50 (concentration causing 50% net cell loss relative to time zero) (Hep3B): > 500 µg/mL
LC50 (concentration causing 50% net cell loss relative to time zero) (MCF7): > 500 µg/mL
IC (total growth inhibition) (MCF7): > 500 µg/mL
LC50 (concentration causing 50% net cell loss) (in vitro): > 500 µg/mL
GI50 (normal FL cells): 3.1 µg/mL (≈ 7.3 µM)
IC50 (normal FL cells): 77.4 µg/mL (≈ 182 µM)
IC (total growth inhibition) (normal FL cells): 81.6 µg/mL
cytotoxicity at 24 h, 25 μg/mL [1]: 28.7%
cytotoxicity at 24 h, 50 μg/mL [1]: 28.7%
cytotoxicity at 24 h, 75 μg/mL [1]: 72.1%
cytotoxicity at 24 h, 100 μg/mL [1]: 97.8%
cytotoxicity at 24 h, 25 μg/mL [2]: 30.2%
cytotoxicity at 24 h, 50 μg/mL [2]: 47%
cytotoxicity at 24 h, 75 μg/mL [2]: 65.3%
cytotoxicity at 24 h, 100 μg/mL [2]: 88.7%
cytotoxicity at 24 h, 25 μg/mL [3]: 29.3%
cytotoxicity at 24 h, 50 μg/mL [3]: 48%
cytotoxicity at 24 h, 75 μg/mL [3]: 68.9%
cytotoxicity at 24 h, 100 μg/mL [3]: 83.7%

GI50 (A549): 6.49 µg/mL (≈ 15.3 µM)
IC50 (A549): > 500 µg/mL
GI50 (C6 (Rat brain glioma)): 4.37 µg/mL (≈ 10.3 µM)
IC50 (C6 (Rat brain glioma)): 33.5 µg/mL (≈ 78.9 µM)
GI50 (HT29): 2.22 µg/mL (≈ 5.23 µM)
IC50 (HT29): 78.4 µg/mL (≈ 185 µM)
GI50 (HeLa): > 500 µg/mL
IC50 (HeLa): > 500 µg/mL
GI50 (Hep3B): 3.83 µg/mL (≈ 9.02 µM)
IC50 (Hep3B): > 500 µg/mL
GI50 (MCF7): 2.23 µg/mL (≈ 5.25 µM)
IC50 (MCF7): > 500 µg/mL
MIC (E. coli ATCC 25922): > 1000 µg/mL
MIC (E. coli ESBL ATCC 35218): > 1000 µg/mL
MIC (E. faecalis ATCC 29212): > 1000 µg/mL
MIC (S. aureus ATCC 25923): 500 µg/mL (≈ 1180 µM)
MIC (S. gordonii NCTC 7870): 1000 µg/mL (≈ 2360 µM)
MIC (S. mutans ATCC 35668; [4]): 500 µg/mL (≈ 1180 µM)
SMILES: Cc1ccccc1-c1cc(-c2ccncc2)nc(N[C@@H]2O[C@H](CO)[C@@H](O)[C@H](O)[C@H]2O)n1 [Compound 3, N-[4-(2-methylphenyl)-6-pyridin-4-ylpyrimidin-2-yl]-β-D-glucopyranosylamine]
LC50 (concentration causing 50% net cell loss) (A549): > 500 µg/mL
IC (total growth inhibition) (A549): > 500 µg/mL
LC50 (concentration giving 50% net cell loss relative to time zero) (C6 (Rat brain glioma)): 252 µg/mL (≈ 594 µM)
IC (total growth inhibition) (C6 (Rat brain glioma)): 17.4 µg/mL
LC50 (concentration giving 50% net cell loss relative to time zero) (HT29): > 500 µg/mL
IC (total growth inhibition) (HT29): 230 µg/mL
IC (total growth inhibition) (HeLa): > 500 µg/mL
LC50 (concentration causing 50% net cell loss) (HeLa): > 500 µg/mL
IC (total growth inhibition) (Hep3B): > 500 µg/mL
LC50 (concentration causing 50% net cell loss relative to time zero) (Hep3B): > 500 µg/mL
LC50 (concentration causing 50% net cell loss relative to time zero) (MCF7): > 500 µg/mL
IC (total growth inhibition) (MCF7): > 500 µg/mL
LC50 (concentration causing 50% net cell loss) (in vitro): > 500 µg/mL
GI50 (normal FL cells): 6.56 µg/mL (≈ 15.5 µM)
IC50 (normal FL cells): > 500 µg/mL
IC (total growth inhibition) (normal FL cells): > 500 µg/mL
cytotoxicity at 24 h, 25 μg/mL [1]: 25.3%
cytotoxicity at 24 h, 50 μg/mL [1]: 32.1%
cytotoxicity at 24 h, 75 μg/mL [1]: 74%
cytotoxicity at 24 h, 100 μg/mL [1]: 99.7%
cytotoxicity at 24 h, 25 μg/mL [2]: 16.3%
cytotoxicity at 24 h, 50 μg/mL [2]: 33.4%
cytotoxicity at 24 h, 75 μg/mL [2]: 40.6%
cytotoxicity at 24 h, 100 μg/mL [2]: 56.9%
cytotoxicity at 24 h, 25 μg/mL [3]: 33.1%
cytotoxicity at 24 h, 50 μg/mL [3]: 49.9%
cytotoxicity at 24 h, 75 μg/mL [3]: 71.1%
cytotoxicity at 24 h, 100 μg/mL [3]: 98.7%
